The source of these data is patent publication US20260234115A1, “LIPID COMPOUNDS, COMPOSITIONS, AND USES THEREOF” (Liberate Bio, Inc., priority 2023, published 2026).

This assay deals with mouse organs. Description: In vivo activity screening in mice: organ mean total flux (p/s) of luciferase activity after injection of F2 LNP pools (Table 6, FIG. 7A-7C). The following applies: luciferase mRNA. How it is done: Small rodent biodistribution studies were performed in mice (e.g., C57BL/6J, Balb-c, CD-1, etc.). For evaluating LNP biodistribution and tissue activity upon systemic administration, C57BL/6J mice received dose administration by single intravenous injection via tail vein with LNP formulations (individual or pooled) in PBS, at different dose (0.25-3 mg/kg) levels of firefly luciferase mRNA. At predetermined time points (4-6 hours post-injection), the animals were anesthetized via isoflurane and subjected to in-life imaging sessions for bioluminescence using an In Vivo Imaging System (IVIS). All animals were dosed with D-Luciferin at 15 mg/mL via subcutaneous (SC) injection at 0.2 mL/animal. Animals had their abdomen hair shaved using an animal trimmer. They were then placed so their shaved belly faced up toward the IVIS camera. Whole body imaging sessions were performed 10-15 minutes following D-Luciferin administration.
For in detail organ distribution and activity of LNP formulations, ex vivo imaging sessions were also performed. All animals received SC D-Luciferin and were then euthanized by isoflurane overdose, followed by cardiac perfusion with saline. Following perfusion, the organs were collected and subjected to IVIS imaging for luminescence within 10-15 minutes of D-Luciferin injection.
All IVIS images were processed with a computer software to identify the regions of interests for individual organs to detect the total flux (p/s) values as luminescence quantification. Then the total flux values were graphed to evaluate the in vivo activity in each collected organ.
Small rodent biodistribution studies were performed in mice according to the General Study Protocols in Example 3(a). LNPs incorporating lipid compounds were prepared in Formulation F2, with MC3 as lipid compound (Cayman Chemical) prepared using Formulation F2 for comparison. LNP pools (with firefly luciferase mRNA encapsulated) were injected into mice at varying doses, and organ mean total flux (p/s) results (measuring luciferase activity) were then collected according to Example 3(a).
LNPs comprising MC3 used as a control and for cross-mouse comparison. Dose is in mg/kg; LC is Lipid Compound according to Table 1.
Additional screening results for Compounds 7, 13, 14, 26, 33, 38, 39, 40, 48, 60, 61, 89, 103, and 109 in spleen, femur, and muscle are shown in FIG. 7A, FIG. 7B, and FIG. 7C, with MC3 as a used as a control for comparison.

Marks after values point to notes of the source that are not given here.

Turning to `CCCCC/C=C\CCCOC(=O)CCCCCC(=O)OCC(COC(=O)CCCCCC(=O)OCCC/C=C\CCCCC)(COC(=O)CCCCCC(=O)OCCC/C=C\CCCCC)COC(=O)CCC(CCCCCC)OC(=O)NCCN1CCCC1` (stereo not drawn) [Compound 45, O7-[2,2-bis[[7-[(Z)-dec-4-enoxy]-7-oxo-heptanoyl]oxymethyl]-3-[4-(2-pyrrolidin-1ylethylcarbamoyloxy)decanoyloxy]propyl]O1-[(Z)-dec-4-enyl]heptanedioate], for the setting “Mouse 11, dose 0.5 mg/kg”, the “Organ Mean Total Flux Femur” value is reported as 1.0 p/s (×10^6), the “Organ Mean Total Flux Heart” value was 1.1 p/s (×10^6), the “Organ Mean Total Flux Kidney” value is given as 0.9 p/s (×10^6) and the “Organ Mean Total Flux Liver” value was 809.3 p/s (×10^6). Moreover, under “Mouse 11, dose 0.5 mg/kg”, the “Organ Mean Total Flux Lung” value is given as 7.2 p/s (×10^6), the “Organ Mean Total Flux Muscle” value is on record as 5.6 p/s (×10^6), the “Organ Mean Total Flux Pancreas” value is listed as 0.5 p/s (×10^6) and the “Organ Mean Total Flux Spleen” value is recorded as 6.0 p/s (×10^6).
Consider `CCCCC/C=C\CCOC(=O)CCCC(=O)OCC(COC(=O)CCCC(=O)OCC/C=C\CCCCC)(COC(=O)CCCC(=O)OCC/C=C\CCCCC)COC(=O)CCC(CCCCCC)OC(=O)NCCN1CCCC1` (stereo not drawn) [Compound 49, O5-[2,2-bis[[5-[(Z)-non-3-enoxy]-5-oxo-pentanoyl]oxymethyl]-3-[4-(2-pyrrolidin-1-ylethylcarbamoyloxy)decanoyloxy]-propyl]O1-[(Z)-non-3-enyl]pentanedioate], for which, for the setting “Mouse 13, dose 0.5 mg/kg”, the “Organ Mean Total Flux Femur” value was 10.2 p/s (×10^6), the “Organ Mean Total Flux Heart” value is on record as 0.5 p/s (×10^6), the “Organ Mean Total Flux Kidney” value was 1.4 p/s (×10^6) and the “Organ Mean Total Flux Liver” value is 185.5 p/s (×10^6). Under “Mouse 13, dose 0.5 mg/kg”, the “Organ Mean Total Flux Lung” value is listed as 11.8 p/s (×10^6), the “Organ Mean Total Flux Muscle” value is given as 2.9 p/s (×10^6), the “Organ Mean Total Flux Pancreas” value is listed as 7.5 p/s (×10^6) and the “Organ Mean Total Flux Spleen” value is listed as 57.1 p/s (×10^6).
Consider `CCCCC/C=C\CCOC(=O)CCCCCCC(=O)OCC(COC(=O)CCCCCCC(=O)OCC/C=C\CCCCC)(COC(=O)CCCCCCC(=O)OCC/C=C\CCCCC)COC(=O)CCC(CCCCCCCC)OC(=O)NCCN1CCCC1` (stereo not drawn) [Compound 27, O8-[2,2-bis[[8-[(Z)-non-3-enoxy]-8-oxooctanoyl]oxymethyl]-3-[4-(2-pyrrolidin-1-ylethylcarbamoyloxy)dodecanoyloxy]propyl]O1-[(Z)-non-3-enyl]octanedioate], for which, for the setting “Mouse 11, dose 0.5 mg/kg”, the “Organ Mean Total Flux Femur” value is listed as 1.1 p/s (×10^6), the “Organ Mean Total Flux Heart” value is 1.7 p/s (×10^6), the “Organ Mean Total Flux Kidney” value was 1.2 p/s (×10^6) and the “Organ Mean Total Flux Liver” value is 1441 p/s (×10^6). Under “Mouse 11, dose 0.5 mg/kg”, the “Organ Mean Total Flux Lung” value is given as 16.4 p/s (×10^6), the “Organ Mean Total Flux Muscle” value is 2.0 p/s (×10^6), the “Organ Mean Total Flux Pancreas” value was 0.5 p/s (×10^6) and the “Organ Mean Total Flux Spleen” value is given as 1.0 p/s (×10^6).
Turning to `CCCCCCC(CCC(=O)OCC(COC(=O)CCCC(=O)OCCC(CCCCC)CCCCC)(COC(=O)CCCC(=O)OCCC(CCCCC)CCCCC)COC(=O)CCCC(=O)OCCC(CCCCC)CCCCC)OC(=O)NCCN1CCCC1` (stereo not drawn) [Compound 54, O5-[2,2-bis[[5-oxo-5-(3-pentyloctoxy)pentanoyl]oxymethyl]-3-[4-(2-pyrrolidin-1-ylethylcarbamoyloxy)decanoyloxy]propyl]O1-(3-pentyloctyl) pentanedioate], where the note is “Mouse 3, dose 1.0 mg/kg”, the “Organ Mean Total Flux Femur” value is 9.0 p/s (×10^6), the “Organ Mean Total Flux Heart” value is listed as 19.3 p/s (×10^6), the “Organ Mean Total Flux Kidney” value was 60.3 p/s (×10^6) and the “Organ Mean Total Flux Liver” value was 24850 p/s (×10^6). For the same compound, for the setting “Mouse 3, dose 1.0 mg/kg”, the “Organ Mean Total Flux Lung” value was 81.5 p/s (×10^6), the “Organ Mean Total Flux Muscle” value was 19.2 p/s (×10^6), the “Organ Mean Total Flux Pancreas” value is 3.6 p/s (×10^6) and the “Organ Mean Total Flux Spleen” value is reported as 9.6 p/s (×10^6).
With `CCCC/C=C\CCOC(=O)CCCCCCCC(=O)OCC(COC(=O)CCCCCCCC(=O)OCC/C=C\CCCC)(COC(=O)CCCCCCCC(=O)OCC/C=C\CCCC)COC(=O)CCC(CCCCCC)OC(=O)NCCN1CCCC1` (stereo not drawn) [Compound 21, O9-[2,2-bis[[9-[(Z)-oct-3-enoxy]-9-oxo-nonanoyl]oxymethyl]-3-[4-(2-pyrrolidin-1ylethylcarbamoyloxy)decanoyloxy]propyl]O1-[(Z)-oct-3-enyl]nonanedioate], for the setting “Mouse 11, dose 0.5 mg/kg”, the “Organ Mean Total Flux Femur” value was 2.0 p/s (×10^6), the “Organ Mean Total Flux Heart” value is given as 0.8 p/s (×10^6), the “Organ Mean Total Flux Kidney” value is recorded as 0.7 p/s (×10^6) and the “Organ Mean Total Flux Liver” value is listed as 818.7 p/s (×10^6). Besides, under “Mouse 11, dose 0.5 mg/kg”, the “Organ Mean Total Flux Lung” value is 6.6 p/s (×10^6), the “Organ Mean Total Flux Muscle” value is listed as 4.1 p/s (×10^6), the “Organ Mean Total Flux Pancreas” value is 2.8 p/s (×10^6) and the “Organ Mean Total Flux Spleen” value is 2.0 p/s (×10^6).
As to `CCCCCCC(CCC(=O)OCC(COC(=O)CCCCC(=O)OCCC(CCCC)CCCCC)(COC(=O)CCCCC(=O)OCCC(CCCCC)CCCCC)COC(=O)CCCCC(=O)OCCC(CCCCC)CCCCC)OC(=O)NCCN1CCCC1` (stereo not drawn) [Compound 53], under “Mouse 3, dose 1.0 mg/kg”, the “Organ Mean Total Flux Femur” value is 2.5 p/s (×10^6), the “Organ Mean Total Flux Heart” value is listed as 2.1 p/s (×10^6), the “Organ Mean Total Flux Kidney” value is 2.2 p/s (×10^6) and the “Organ Mean Total Flux Liver” value is 1286 p/s (×10^6). Also, under “Mouse 3, dose 1.0 mg/kg”, the “Organ Mean Total Flux Lung” value is 12.1 p/s (×10^6), the “Organ Mean Total Flux Muscle” value is reported as 5.5 p/s (×10^6), the “Organ Mean Total Flux Pancreas” value was 2.3 p/s (×10^6) and the “Organ Mean Total Flux Spleen” value was 9.3 p/s (×10^6).
With `CCCCC/C=C\CCOC(=O)CCCCC(=O)OCC(COC(=O)CCCCC(=O)OCC/C=C\CCCCC)(COC(=O)CCC(CCCCCC)OC(=O)NCCN1CCCC1)COC(=O)CC12CC(C1)C2` (stereo not drawn) [Compound 91, O6-[2-[[2-(1-bicyclo[1.1.1]pentanyl)acetyl]oxymethyl]-2-[[6-[(Z)-non-3-enoxy]-6-oxo-hexanoyl]oxymethyl]-3-[4-(2-pyrrolidin-1ylethylcarbamoyloxy)decanoyloxy]propyl]O1-[(Z)-non-3-enyl]hexanedioate], under “Mouse 12, dose 0.5 mg/kg”, the “Organ Mean Total Flux Femur” value is 15.8 p/s (×10^6), the “Organ Mean Total Flux Heart” value is on record as 2.6 p/s (×10^6), the “Organ Mean Total Flux Kidney” value was 12.3 p/s (×10^6) and the “Organ Mean Total Flux Liver” value was 404.7 p/s (×10^6). For the setting “Mouse 12, dose 0.5 mg/kg”, the “Organ Mean Total Flux Lung” value was 26.3 p/s (×10^6), the “Organ Mean Total Flux Muscle” value is 7.8 p/s (×10^6), the “Organ Mean Total Flux Pancreas” value was 76.4 p/s (×10^6) and the “Organ Mean Total Flux Spleen” value was 123.6 p/s (×10^6).
Consider `CCCCC/C=C\CCOC(=O)CCCCCC(=O)OCC(COC(=O)CCCCCC(=O)OCC/C=C\CCCCC)(COC(=O)CCCCCC(=O)OCC/C=C\CCCCC)COC(=O)CCC(CCCCCCCC)OC(=O)NCCN1CCCC1` (stereo not drawn) [Compound 28, O7-[2,2-bis[[7-[(Z)-non-3-enoxy]-7-oxo-heptanoyl]oxymethyl]-3-[4-(2-pyrrolidin-1-ylethylcarbamoyloxy)dodecanoyloxy]propyl]O1-[(Z)-non-3-enyl]heptanedioate], for which, under “Mouse 6, dose 0.5 mg/kg”, the “Organ Mean Total Flux Femur” value is 3.5 p/s (×10^6), the “Organ Mean Total Flux Heart” value was 0.5 p/s (×10^6), the “Organ Mean Total Flux Kidney” value is reported as 0.9 p/s (×10^6) and the “Organ Mean Total Flux Liver” value is recorded as 278.3 p/s (×10^6). Besides, where the note is “Mouse 6, dose 0.5 mg/kg”, the “Organ Mean Total Flux Lung” value was 10.4 p/s (×10^6), the “Organ Mean Total Flux Muscle” value is recorded as 11.6 p/s (×10^6), the “Organ Mean Total Flux Pancreas” value was 0.8 p/s (×10^6) and the “Organ Mean Total Flux Spleen” value is 3.5 p/s (×10^6).
As to `CCCCC/C=C\CCOC(=O)CCCCCCC(=O)OCC(COC(=O)CCCCCCC(=O)OCC/C=C\CCCCC)(COC(=O)CCCCCCC(=O)OCC/C=C\CCCCC)COC(=O)CCC(CCCC)OC(=O)NCCN1CCCC1` (stereo not drawn) [Compound 25, O8-[2,2-bis[[8-[(Z)-non-3-enoxy]-8-oxo-octanoyl]oxymethyl]-3-[4-(2-pyrrolidin-1-ylethylcarbamoyloxy)octanoyloxy]propyl]O1-[(Z)-non-3-enyl]octanedioate], where the note is “Mouse 6, dose 0.5 mg/kg”, the “Organ Mean Total Flux Femur” value is given as 4.4 p/s (×10^6), the “Organ Mean Total Flux Heart” value is recorded as 1.4 p/s (×10^6), the “Organ Mean Total Flux Kidney” value is listed as 5.9 p/s (×10^6) and the “Organ Mean Total Flux Liver” value was 911.0 p/s (×10^6). Where the note is “Mouse 6, dose 0.5 mg/kg”, the “Organ Mean Total Flux Lung” value was 12.5 p/s (×10^6), the “Organ Mean Total Flux Muscle” value is 5.1 p/s (×10^6), the “Organ Mean Total Flux Pancreas” value is 14.3 p/s (×10^6) and the “Organ Mean Total Flux Spleen” value is 80.3 p/s (×10^6).
